Laboratory results published in patent US8143212B2 (Vicuron Pharmaceuticals Inc., priority 2002, dated 2012).
Where two headings read alike, the source gives them in different places.

What was measured:
S. aureus = test: Murine thigh-infection model (time kill, dosing regimen, PK/PD; Tables 31, 32); conditions: for 1 log kill mg/kg / 2 log kill mg/kg: total dose over 6 days;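 as to all read-outs here: mouse thigh infection, bacterial counts per thigh after therapy, dose-response curves fitted with a maximum effect model to give static and 1 or 2 log kill exposures, mean of 4 thighs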
Method: The murine thigh-infection model was used for all organisms throughout the various studies. In this well-established model, approximately 10^6 Cfu of the study organisms are injected into one or both thighs (in 0.1 ml) two hours before starting therapy. The number of organisms in the thigh at the start of therapy in the following studies varied from 10^7.15-7.59 cfu/thigh.
Each point represents the mean of 4 thighs. Five dose levels, ranging 16-fold were used. The dose levels used in the study against S. aureus ranged from 5 to 80 mg/kg.
In these studies, multiple dosing regimens varying the dose and dosage interval were administered intraperitoneally in 0.2 ml volumes to groups of mice for 144 h (6 days). The dosing intervals chosen were 12, 24, 36, and 72 hours. Five different doses (two-fold increases) were used. Study against S. aureus utilized total dose (mg/kg/6d) levels ranging from 30 to 480 mg/kg/6d. […] Each point represents the mean of 4 thighs.
Each of the dose-response curves was also mathematically characterized using a maximum effect model. […] From these parameters we could then calculate the dose required to produce a net bacteriostatic effect over the 144 hour treatment period as well as the doses necessary to produce a 1 and 2 log-reduction in organism burden.
We determined which PK/PD parameter correlated best with efficacy by relating the number of bacteria in thigh at the end of 144 hours of therapy with [1] the peak/MIC ratio, [2] the AUC/MIC ratio, and [3] the percentage of the dosing interval that serum levels exceed the MIC for each of the dosage regimens studied. The PK/PD parameter values for those doses not specifically studied were extrapolated from the values of the nearest studied doses. […] Each point represents the mean of four thighs. […] The data illustrated in these figures were also analyzed by the same maximum dose-response model mentioned above, except that the different PK/PD parameters were used in place of the dose. The R^2 represents the coefficient of determination observed for the relationship between efficacy and each PK/PD parameter.

Rat mass balance study = conditions: rats
Method: Excreta and more than 40 different tissues were collected through 70 days post-administration, and the tissue distribution and pharmacokinetics of drug-derived radioactivity were determined.
Following dose administration, urine and feces were collected at 24 hour intervals to 14, 36, and 70 days after the dose (3 rats/final collection time). Water and methanol cage washes were also collected. Carcasses were analyzed at the end of the collection period. All samples were analyzed for total radioactivity content by liquid scintillation counting (LSC).

human α-glycoprotein = conditions: pH 7.4
Method: Integrated heat effects, after correction for heats of dilution, were analyzed by non-linear regression using a simple single-site binding model with the standard Microcal ORIGIN software package. Raw data (μcal/sec) for each injection were integrated to give the total heat effect per addition, then divided by amount of injectant to give kcal/mole of injectant. The same integration was applied for control dilution effects, and this was subtracted from the actual titration data. This provided a differential of the binding curve in which the extent of binding is proportional to the total heat liberated (or absorbed). This was then analyzed by non-linear regression methods in terms of various standard binding models. The simplest model assumes simple non-competitive binding equilibrium, and gives three parameters:

CN[C@H]1C(=O)N[C@@H]2Cc3ccc(cc3)Oc3cc4cc(c3O[C@@H]3O[C@H](C(=O)O)[C@@H](O)[C@H](O)[C@H]3NC(=O)CCCCCCCCC(C)C)Oc3ccc(cc3Cl)[C@@H](O)[C@@H]3NC(=O)[C@H](NC(=O)[C@@H]4NC(=O)[C@@H](NC2=O)c2cc(cc(O)c2Cl)Oc2cc1ccc2O)c1ccc(O)c(c1)-c1c(O[C@H]2O[C@H](CO)[C@@H](O)[C@H](O)[C@@H]2O)cc(O)cc1[C@@H](C(=O)NCCCN(C)C)NC3=O [Dalbavancin]
1 log kill mg/kg (S. aureus; SA29213, q 24 h): 267 mg/kg
1 log kill mg/kg (S. aureus; SA29213, q 36 h): 36 mg/kg
2 log kill mg/kg (S. aureus; SA29213, q 36 h): 122 mg/kg
1 log kill mg/kg (S. aureus; SA29213, q 72 h): 31 mg/kg
2 log kill mg/kg (S. aureus; SA29213, q 72 h): 128 mg/kg
Static Effect f24AUC/MBC (S. aureus; SA31005, q 24 h regimen): 242
Static Effect f24AUC/MIC (S. aureus; SA31005, q 24 h regimen): 483
Static Effect mg/kg/24 h (S. aureus; SA31005, q 24 h regimen): 49.3 mg/kg/24 h
1 Log Kill f24AUC/MBC (S. aureus; SA31005, q 72 h regimen): 163
1 Log Kill f24AUC/MIC (S. aureus; SA31005, q 72 h regimen): 325
1 Log Kill mg/kg/24 h (S. aureus; SA31005, q 72 h regimen): 94.6 mg/kg/24 h
2 Log Kill f24AUC/MBC (S. aureus; SA31005, q 72 h regimen): 217
2 Log Kill f24AUC/MIC (S. aureus; SA31005, q 72 h regimen): 364
2 Log Kill mg/kg/24 h (S. aureus; SA31005, q 72 h regimen): 127 mg/kg/24 h
Static Effect f24AUC/MBC (S. aureus; SA31005, q 72 h regimen): 112
Static Effect f24AUC/MIC (S. aureus; SA31005, q 72 h regimen): 223
Static Effect mg/kg/72 h (S. aureus; SA31005, q 72 h regimen): 67.7 mg/kg/72 h
1 Log Kill f24AUC/MBC (S. aureus; SA33591, q 24 h regimen): 58.3
1 Log Kill f24AUC/MIC (S. aureus; SA33591, q 24 h regimen): 121
1 Log Kill mg/kg/24 h (S. aureus; SA33591, q 24 h regimen): 27.7 mg/kg/24 h
2 Log Kill f24AUC/MBC (S. aureus; SA33591, q 24 h regimen): 74.3
2 Log Kill f24AUC/MIC (S. aureus; SA33591, q 24 h regimen): 157
2 Log Kill mg/kg/24 h (S. aureus; SA33591, q 24 h regimen): 33.5 mg/kg/24 h
Static Effect f24AUC/MBC (S. aureus; SA33591, q 24 h regimen): 46
Static Effect f24AUC/MIC (S. aureus; SA33591, q 24 h regimen): 96.2
Static Effect mg/kg/24 h (S. aureus; SA33591, q 24 h regimen): 22.3 mg/kg/24 h
1 Log Kill f24AUC/MBC (S. aureus; SA33591, q 72 h regimen): 76.6
1 Log Kill f24AUC/MIC (S. aureus; SA33591, q 72 h regimen): 160
1 Log Kill mg/kg/24 h (S. aureus; SA33591, q 72 h regimen): 93 mg/kg/24 h
2 Log Kill f24AUC/MBC (S. aureus; SA33591, q 72 h regimen): 94
2 Log Kill f24AUC/MIC (S. aureus; SA33591, q 72 h regimen): 195
2 Log Kill mg/kg/24 h (S. aureus; SA33591, q 72 h regimen): 114 mg/kg/24 h
Static Effect f24AUC/MBC (S. aureus; SA33591, q 72 h regimen): 59
Static Effect f24AUC/MIC (S. aureus; SA33591, q 72 h regimen): 123
Static Effect mg/kg/72 h (S. aureus; SA33591, q 72 h regimen): 74 mg/kg/72 h
1 Log Kill f24AUC/MBC (S. aureus; SA307109, q 72 h regimen): 12.9
1 Log Kill f24AUC/MIC (S. aureus; SA307109, q 72 h regimen): 108
1 Log Kill mg/kg/24 h (S. aureus; SA307109, q 72 h regimen): 34 mg/kg/24 h
2 Log Kill f24AUC/MBC (S. aureus; SA307109, q 72 h regimen): 14.6
2 Log Kill f24AUC/MIC (S. aureus; SA307109, q 72 h regimen): 121
2 Log Kill mg/kg/24 h (S. aureus; SA307109, q 72 h regimen): 37 mg/kg/24 h
Static Effect f24AUC/MBC (S. aureus; SA307109, q 72 h regimen): 11.3
Static Effect f24AUC/MIC (S. aureus; SA307109, q 72 h regimen): 94
Static Effect mg/kg/72 h (S. aureus; SA307109, q 72 h regimen): 31 mg/kg/72 h
1 Log Kill f24AUC/MBC (S. aureus; SA Smith, q 24 h regimen): 119
1 Log Kill f24AUC/MIC (S. aureus; SA Smith, q 24 h regimen): 248
1 Log Kill mg/kg/24 h (S. aureus; SA Smith, q 24 h regimen): 50.7 mg/kg/24 h
2 Log Kill f24AUC/MBC (S. aureus; SA Smith, q 24 h regimen): 173
2 Log Kill f24AUC/MIC (S. aureus; SA Smith, q 24 h regimen): 361
2 Log Kill mg/kg/24 h (S. aureus; SA Smith, q 24 h regimen): 73.5 mg/kg/24 h
Static Effect f24AUC/MBC (S. aureus; SA Smith, q 24 h regimen): 75
Static Effect f24AUC/MIC (S. aureus; SA Smith, q 24 h regimen): 156
Static Effect mg/kg/24 h (S. aureus; SA Smith, q 24 h regimen): 33.5 mg/kg/24 h
1 Log Kill f24AUC/MBC (S. aureus; SA Smith, q 72 h regimen): 78.0
1 Log Kill f24AUC/MIC (S. aureus; SA Smith, q 72 h regimen): 163
1 Log Kill mg/kg/24 h (S. aureus; SA Smith, q 72 h regimen): 95 mg/kg/24 h
2 Log Kill f24AUC/MBC (S. aureus; SA Smith, q 72 h regimen): 22
2 Log Kill f24AUC/MIC (S. aureus; SA Smith, q 72 h regimen): 254
2 Log Kill mg/kg/24 h (S. aureus; SA Smith, q 72 h regimen): 148 mg/kg/24 h
Static Effect f24AUC/MBC (S. aureus; SA Smith, q 72 h regimen): 46.1
Static Effect f24AUC/MIC (S. aureus; SA Smith, q 72 h regimen): 96
Static Effect mg/kg/72 h (S. aureus; SA Smith, q 72 h regimen): 59 mg/kg/72 h
drop in cfu (S. aureus; all strains, 6 day study): > 4 log10
free drug 24 h AUC/MIC associated with a static effect (S. aureus; every 24 h dosing): 265±143
free drug 24 h AUC/MIC associated with a static effect (S. aureus; every 72 h dosing): 160±67
free drug AUC/MIC required for efficacy (S. aureus; over the 6 days): ~1000
extent of killing (S. aureus; single doses, highest doses studied): > 2 log
plasma t1/2 (Rat mass balance study): approximately 1 week
Calculated percent Binding (human α-glycoprotein; 1 μM): 73.0%
Calculated percent Binding (human α-glycoprotein; 10 μM): 68.2%
Calculated percent Binding (human α-glycoprotein; 100 μM): 26.2%
Calculated percent Binding (human α-glycoprotein; 165 μM): 16.9%
Calculated percent Binding (human α-glycoprotein; 250 μM): 11.4%
Calculated percent Binding (human α-glycoprotein; 500 μM): 5.9%
